Measurements taken from patent US11576901B2, “Methods for treating viral infection” (HOWARD UNIVERSITY, priority 2016, dated 2023).

Experiments:
[1] = tested on: HIV1 modified pNL4-3.Luc.R-E-virus; assay: Western assay of HIV p24 gag expression in infected CEM T cells; type: cell-based; conditions: Western assay with HIV p24 antibody, FIG. 4
Source text: The ability of a compound in accordance with General Formula 1, including derivatives in accordance with General Formulae 1-1 to 1-20, or pharmaceutically acceptable salts thereof, to inhibit the expression of at least a portion of a virus genome containing an IRES sequence can be also be determined by assessing the expression of a native protein within a viral genome. In some embodiments, the ability of a compound or pharmaceutically acceptable salt to inhibit expression of native protein can be assessed by using antibodies for a protein normally expressed from the virus genome. For example, HIV p24 gag is a protein normally expressed by HIV1 that can be detected using the HIVI p24 antibody. Accordingly, compounds in accordance with General Formula 1, including derivatives in accordance with any of General Formulae 1-1 to 1-20, or pharmaceutically acceptable salts thereof, can be assessed for the ability to inhibit proliferation of the HIV1 by infecting CEM T cells with the HIV1 modified pNL4-3.Luc.R-E-virus and assessing the expression of HIV p24 gag with the HIV p24 antibody. […]
A compound or salt may be wrongly classified as capable of inhibiting expression of at least a portion of a virus genome containing an IRES sequence due to unequal loading of proteins within an assay. […] In some embodiments, equivalent protein loading can be assessed by ponceau staining. […]

[2] = tested on: HSV-1; assay: Plaque forming assay, Hep-2 cell monolayers infected with HSV-1; type: cell-based; conditions: Hep-2 cells, 100 μM
Description: The ability of a virus to infect cells can be assessed using a plaque assay. In a plaque assay, an infected cell culture is grown under a nutrient gel. During culturing, the virus being study infects cells and replicates. However, the spread of virus to other cells is limited by the overlaying nutrient gel. As such, replicated virus released from one infected cell can only infect neighboring cells. The spread of virus amongst neighboring cells creates a plaque that can be visualized by staining. By counting the visible plaques, the amount of plaque forming units (pfu) per mL can be determined. If cells treated with a compound display a reduced amount of pfu compared to cells not treated with the compound after being infected with same amount of viral particles, then the reduction in pfu would have to be result of the ability of the […] virus. Thus, the ability of a compound in accordance with General Formula 1, including derivatives in accordance with any of General Formulae 1-1 to 1-20, to inhibit the ability of HSV-1 to proliferate can be assessed with a plaque assay.
Hep-2 cell monolayers were placed in well plates. The plated Hep-2 cells were treated with either DSMO as a control, 100 μM SD-29 or 100 μM SD29-12. A total of 6 well plates were prepared for each treatment condition. To each treated well plate an HSV-1 infecting solution comprising 1 mL of supernatants containing of the same amount of serially diluted HSV-1 particles were added. Accordingly, the treated well plates were infected with infection solutions containing the same amount of HSV-1 particles. After adsorption for 2 hours, the medium was removed and the treated cells were washed twice with serum-free DMEM and overlaid with phenol-free DMEM containing 5% FCS, 0.5% low-melting point agarose (GIBCO), and 1% penicillin-streptomycin. After either 0, 6, 12, 24 hours, the plaques present in each treated well plate were stained red and the number of plaques presented counted. Table 1 reports the mean plaque forming unit (pfu) determined for each treated well plate after averaging the number of pfu from the different plates receiving the same treatment.

## Nn1c(-c2cccc(F)c2)n[nH]c1=S [5e, 4-amino-5-(3-fluorophenyl)-2,4-dihydro-3H-1,2,4-triazole-3-thione]
other
  melting point: 220 °C

## COc1ccc(-c2nnc(SCC(=O)O)n2N)cc1 [SD-29-12]
[1]
  expression of HIV p24 gag: does not inhibit expression of HIV p24 gag
[2]; 0 hpi
  mean plaque forming unit (pfu): 0 pfu
[2]; 6 hpi
  mean plaque forming unit (pfu): 380 pfu
[2]; 12 hpi
  mean plaque forming unit (pfu): 3600 pfu
[2]; 24 hpi
  mean plaque forming unit (pfu): 2600000 pfu
